Our source for the IC50 and Ki values is ChEMBL document CHEMBL1909046, “DrugMatrix in vitro pharmacology data”.

The target of one data set is Cannabinoid receptor 1 (Homo sapiens, UniProt P21554). Format: cell membranes, Chem-1, Membrane. The note with it: chem-1. Further: in other assays of this panel Not Active means under 50% inhibition at 10 µM.
Chain of Cannabinoid receptor 1 (P21554 whole entry): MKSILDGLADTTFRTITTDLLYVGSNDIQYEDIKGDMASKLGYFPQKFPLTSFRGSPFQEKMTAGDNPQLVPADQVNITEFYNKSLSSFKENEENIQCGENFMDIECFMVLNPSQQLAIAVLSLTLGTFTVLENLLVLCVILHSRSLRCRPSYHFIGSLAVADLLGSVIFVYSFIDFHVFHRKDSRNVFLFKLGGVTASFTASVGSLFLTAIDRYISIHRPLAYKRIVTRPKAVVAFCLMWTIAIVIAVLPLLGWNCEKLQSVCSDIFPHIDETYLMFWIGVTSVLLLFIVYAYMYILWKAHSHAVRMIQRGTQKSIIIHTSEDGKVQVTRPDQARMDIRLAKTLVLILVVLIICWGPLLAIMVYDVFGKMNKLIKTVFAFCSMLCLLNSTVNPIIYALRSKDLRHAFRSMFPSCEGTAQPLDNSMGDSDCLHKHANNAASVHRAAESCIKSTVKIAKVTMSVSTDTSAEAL
A word on the IC50: it is the concentration needed to halve the response being measured. With `CC1(C)O[C@@H]2C[C@H]3[C@@H]4C[C@H](F)C5=CC(=O)C=C[C@]5(C)[C@@]4(F)[C@@H](O)C[C@]3(C)[C@]2(C(=O)CO)O1` [FLUOCINOLONE ACETONIDE], the IC50 result is reported as “Not Active”.

With `CC1(C)O[C@@H]2C[C@H]3[C@@H]4C[C@H](F)C5=CC(=O)CC[C@]5(C)[C@H]4[C@@H](O)C[C@]3(C)[C@]2(C(=O)CO)O1` [FLURANDRENOLIDE], the IC50 result is “Not Active”.

As to `CN(C)c1ccc(C(=C2C=CC(=[N+](C)C)C=C2)c2ccc(N(C)C)cc2)cc1.[Cl-]` [GENTIAN VIOLET], the IC50 entry is on record as “Not Active”.

On to `Cc1ccc(S(=O)(=O)NC(=O)NN2CC3CCCC3C2)cc1` (stereo unspecified) [GLICLAZIDE], for which the half-inhibitory concentration (IC50) entry is given as “Not Active”.

For another data set, the target named is T1, Cholecystokinin receptor type A (Homo sapiens, UniProt P32238). Further: in other assays of this panel Not Active means under 50% inhibition at 10 µM.
T1 sequence (P32238 whole entry): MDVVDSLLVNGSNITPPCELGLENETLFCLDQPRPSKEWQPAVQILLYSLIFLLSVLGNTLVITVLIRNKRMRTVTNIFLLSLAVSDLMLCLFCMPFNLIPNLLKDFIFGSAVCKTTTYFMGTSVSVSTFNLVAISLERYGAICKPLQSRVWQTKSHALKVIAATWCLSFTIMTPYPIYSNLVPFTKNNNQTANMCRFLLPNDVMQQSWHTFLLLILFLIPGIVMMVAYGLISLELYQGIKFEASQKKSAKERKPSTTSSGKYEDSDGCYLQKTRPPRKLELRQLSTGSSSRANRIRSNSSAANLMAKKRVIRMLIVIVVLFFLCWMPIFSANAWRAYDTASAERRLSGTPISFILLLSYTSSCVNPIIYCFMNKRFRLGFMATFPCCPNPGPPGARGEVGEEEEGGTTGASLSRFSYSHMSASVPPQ
Format: cell membranes, Membrane. Conditions: 1321-n1.
Turning to `CC1(C)O[C@@H]2C[C@H]3[C@@H]4C[C@H](F)C5=CC(=O)C=C[C@]5(C)[C@@]4(F)[C@@H](O)C[C@]3(C)[C@]2(C(=O)CO)O1` [FLUOCINOLONE ACETONIDE], the concentration for half-maximal inhibition (IC50) entry is recorded as “Not Active”.

Regarding `CC1(C)O[C@@H]2C[C@H]3[C@@H]4C[C@H](F)C5=CC(=O)CC[C@]5(C)[C@H]4[C@@H](O)C[C@]3(C)[C@]2(C(=O)CO)O1` [FLURANDRENOLIDE], the IC50 result is “Not Active”.

For the compound `CN(C)c1ccc(C(=C2C=CC(=[N+](C)C)C=C2)c2ccc(N(C)C)cc2)cc1.[Cl-]` [GENTIAN VIOLET], the IC50 entry is reported as “Not Active”.

For `Cc1ccc(S(=O)(=O)NC(=O)NN2CC3CCCC3C2)cc1` (stereo unspecified) [GLICLAZIDE], the half-inhibitory concentration (IC50) result is “Not Active”.

The target of the next data set is D(3) dopamine receptor (Homo sapiens, UniProt P35462). Kind of data set: DRUGMATRIX: Dopamine D3 radioligand binding (ligand: [3H] Spiperone). The note with it: cho. In kind it is cell membranes, CHO, Membrane.
Chain of D(3) dopamine receptor (P35462 whole entry): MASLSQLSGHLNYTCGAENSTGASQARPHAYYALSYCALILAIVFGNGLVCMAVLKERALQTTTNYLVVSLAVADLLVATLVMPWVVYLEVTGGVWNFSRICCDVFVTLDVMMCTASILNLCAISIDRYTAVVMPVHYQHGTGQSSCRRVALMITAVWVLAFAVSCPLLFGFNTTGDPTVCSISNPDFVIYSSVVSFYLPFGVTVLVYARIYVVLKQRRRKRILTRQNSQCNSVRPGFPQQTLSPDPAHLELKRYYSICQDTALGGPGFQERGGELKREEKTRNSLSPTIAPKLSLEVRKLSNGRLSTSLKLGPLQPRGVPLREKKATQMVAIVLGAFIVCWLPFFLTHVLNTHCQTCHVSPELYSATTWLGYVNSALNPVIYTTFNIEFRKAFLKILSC
With `CC1(C)O[C@@H]2C[C@H]3[C@@H]4C[C@H](F)C5=CC(=O)C=C[C@]5(C)[C@@]4(F)[C@@H](O)C[C@]3(C)[C@]2(C(=O)CO)O1` [FLUOCINOLONE ACETONIDE], the IC50 entry is reported as “Not Active”.

As to `CC1(C)O[C@@H]2C[C@H]3[C@@H]4C[C@H](F)C5=CC(=O)CC[C@]5(C)[C@H]4[C@@H](O)C[C@]3(C)[C@]2(C(=O)CO)O1` [FLURANDRENOLIDE], the IC50 entry is recorded as “Not Active”.

As to `Cc1ccc(S(=O)(=O)NC(=O)NN2CC3CCCC3C2)cc1` (stereo unspecified) [GLICLAZIDE], the IC50 result is recorded as “Not Active”.

Staying with this data set, now noted: read-out: IC50.
Consider `CN(C)c1ccc(C(=C2C=CC(=[N+](C)C)C=C2)c2ccc(N(C)C)cc2)cc1.[Cl-]` [GENTIAN VIOLET], for which the IC50 was found to be 831 nM.

Staying with this data set, now noted: read-out: Ki.
Broadly, the Ki is the equilibrium dissociation constant of an inhibitor or competing ligand from its target. As to `CN(C)c1ccc(C(=C2C=CC(=[N+](C)C)C=C2)c2ccc(N(C)C)cc2)cc1.[Cl-]` [GENTIAN VIOLET], the Ki was 282 nM.

Test system in a further data set: not listed separately
As to the kind of experiment: DRUGMATRIX: Phorbol Ester radioligand binding (ligand: [3H] PDBu). Format: cell membranes, Mus musculus, ICR, Brain, Membrane. Conditions: Not Active = under 50% inhibition at 10 µM.
Consider `CC1(C)O[C@@H]2C[C@H]3[C@@H]4C[C@H](F)C5=CC(=O)C=C[C@]5(C)[C@@]4(F)[C@@H](O)C[C@]3(C)[C@]2(C(=O)CO)O1` [FLUOCINOLONE ACETONIDE], for which the concentration for half-maximal inhibition (IC50) entry is listed as “Not Active” and the Ki entry is reported as “Not Active”.

For the compound `CC1(C)O[C@@H]2C[C@H]3[C@@H]4C[C@H](F)C5=CC(=O)CC[C@]5(C)[C@H]4[C@@H](O)C[C@]3(C)[C@]2(C(=O)CO)O1` [FLURANDRENOLIDE], the 50% inhibitory concentration (IC50) entry was “Not Active” and the Ki result is “Not Active”.

As to `CN(C)c1ccc(C(=C2C=CC(=[N+](C)C)C=C2)c2ccc(N(C)C)cc2)cc1.[Cl-]` [GENTIAN VIOLET], the IC50 result is listed as “Not Active” and the Ki result is reported as “Not Active”.

On to `Cc1ccc(S(=O)(=O)NC(=O)NN2CC3CCCC3C2)cc1` (stereo unspecified) [GLICLAZIDE], for which the IC50 result was “Not Active” and the Ki entry was “Not Active”.

Test system in another data set: not listed separately
Kind of data set: DRUGMATRIX: Phosphodiesterase PDE4 enzyme inhibition (substrate: [3H]cAMP + cAMP). Conditions: u-937; Not Active = under 50% inhibition at 10 µM.
On to `CC1(C)O[C@@H]2C[C@H]3[C@@H]4C[C@H](F)C5=CC(=O)C=C[C@]5(C)[C@@]4(F)[C@@H](O)C[C@]3(C)[C@]2(C(=O)CO)O1` [FLUOCINOLONE ACETONIDE], for which the IC50 entry is recorded as “Not Active” and the Ki result was “Not Active”.

On to `CC1(C)O[C@@H]2C[C@H]3[C@@H]4C[C@H](F)C5=CC(=O)CC[C@]5(C)[C@H]4[C@@H](O)C[C@]3(C)[C@]2(C(=O)CO)O1` [FLURANDRENOLIDE], for which the IC50 entry was “Not Active” and the Ki entry was “Not Active”.

With `CN(C)c1ccc(C(=C2C=CC(=[N+](C)C)C=C2)c2ccc(N(C)C)cc2)cc1.[Cl-]` [GENTIAN VIOLET], the half-maximal inhibitory concentration (IC50) result is on record as “Not Active” and the Ki result is reported as “Not Active”.

On to `Cc1ccc(S(=O)(=O)NC(=O)NN2CC3CCCC3C2)cc1` (stereo unspecified) [GLICLAZIDE], for which the concentration for half-maximal inhibition (IC50) result is given as “Not Active” and the Ki entry is on record as “Not Active”.

The next data set deals with T2, Caspase-1 (Homo sapiens, UniProt P29466).
T2 sequence (P29466 whole entry): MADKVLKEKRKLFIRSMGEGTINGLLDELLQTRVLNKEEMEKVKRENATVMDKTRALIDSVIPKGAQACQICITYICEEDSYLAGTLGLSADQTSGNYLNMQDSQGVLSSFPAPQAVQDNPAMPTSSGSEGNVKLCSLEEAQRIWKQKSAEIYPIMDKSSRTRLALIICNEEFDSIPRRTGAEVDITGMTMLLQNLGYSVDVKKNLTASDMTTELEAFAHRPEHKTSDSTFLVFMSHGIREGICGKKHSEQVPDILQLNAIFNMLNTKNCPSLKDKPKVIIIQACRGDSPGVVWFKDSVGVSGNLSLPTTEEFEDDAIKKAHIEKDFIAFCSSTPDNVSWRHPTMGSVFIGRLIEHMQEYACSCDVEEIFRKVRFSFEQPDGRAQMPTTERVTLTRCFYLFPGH
More on the design: species or system Escherichia coli.
Conditions: not given
Regarding `CC1(C)O[C@@H]2C[C@H]3[C@@H]4C[C@H](F)C5=CC(=O)C=C[C@]5(C)[C@@]4(F)[C@@H](O)C[C@]3(C)[C@]2(C(=O)CO)O1` [FLUOCINOLONE ACETONIDE], the IC50 entry is “Not Active”.

`CC1(C)O[C@@H]2C[C@H]3[C@@H]4C[C@H](F)C5=CC(=O)CC[C@]5(C)[C@H]4[C@@H](O)C[C@]3(C)[C@]2(C(=O)CO)O1` [FLURANDRENOLIDE]: the 50% inhibitory concentration (IC50) entry is “Not Active”.

On to `CN(C)c1ccc(C(=C2C=CC(=[N+](C)C)C=C2)c2ccc(N(C)C)cc2)cc1.[Cl-]` [GENTIAN VIOLET], for which the IC50 entry was “Not Active”.

On to `Cc1ccc(S(=O)(=O)NC(=O)NN2CC3CCCC3C2)cc1` (stereo unspecified) [GLICLAZIDE], for which the IC50 entry is on record as “Not Active”.

The next data set has as its target T3, Cytochrome P450 2A6 (Homo sapiens, UniProt P11509). Further: in other assays of this panel Not Active means under 50% inhibition at 10 µM.
T3 sequence (P11509 whole entry): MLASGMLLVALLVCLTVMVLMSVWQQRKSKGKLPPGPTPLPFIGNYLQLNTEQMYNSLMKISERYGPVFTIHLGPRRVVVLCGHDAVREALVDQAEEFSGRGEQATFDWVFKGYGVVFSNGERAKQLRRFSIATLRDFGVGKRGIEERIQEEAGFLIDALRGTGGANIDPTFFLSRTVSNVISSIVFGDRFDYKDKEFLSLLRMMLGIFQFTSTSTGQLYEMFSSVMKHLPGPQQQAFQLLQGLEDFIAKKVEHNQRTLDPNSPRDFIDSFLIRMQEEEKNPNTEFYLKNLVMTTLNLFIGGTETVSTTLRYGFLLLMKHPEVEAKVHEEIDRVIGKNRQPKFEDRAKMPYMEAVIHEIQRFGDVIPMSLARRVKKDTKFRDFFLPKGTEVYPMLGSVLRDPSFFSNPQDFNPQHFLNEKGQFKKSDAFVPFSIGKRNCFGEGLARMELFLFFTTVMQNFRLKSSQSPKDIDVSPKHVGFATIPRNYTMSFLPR
Conditions: bti-tn-5b1-4.
Regarding `CC1(C)O[C@@H]2C[C@H]3[C@@H]4C[C@H](F)C5=CC(=O)C=C[C@]5(C)[C@@]4(F)[C@@H](O)C[C@]3(C)[C@]2(C(=O)CO)O1` [FLUOCINOLONE ACETONIDE], the IC50 result is given as “Not Active” and the Ki result is “Not Active”.

As to `CC1(C)O[C@@H]2C[C@H]3[C@@H]4C[C@H](F)C5=CC(=O)CC[C@]5(C)[C@H]4[C@@H](O)C[C@]3(C)[C@]2(C(=O)CO)O1` [FLURANDRENOLIDE], the half-maximal inhibitory concentration (IC50) entry is listed as “Not Active” and the Ki result is “Not Active”.

Regarding `CN(C)c1ccc(C(=C2C=CC(=[N+](C)C)C=C2)c2ccc(N(C)C)cc2)cc1.[Cl-]` [GENTIAN VIOLET], the IC50 result is on record as “Not Active” and the Ki entry is recorded as “Not Active”.

On to `Cc1ccc(S(=O)(=O)NC(=O)NN2CC3CCCC3C2)cc1` (stereo unspecified) [GLICLAZIDE], for which the IC50 result is reported as “Not Active” and the Ki entry is given as “Not Active”.
